Laboratory results as given in patent US20070167408A1, “NOVEL ALKYL PHOSPHOLIPID DERIVATIVES WITH REDUCED CYTOTOXICITY AND USES THEREOF” (ZENTARIS GmbH, priority 2005, published 2007).
Converted amounts (≈) assume the structure as drawn.

Legend:
[1] = system: Plasmodium falciparum (strain K1); assay: In vitro drug activity assay, protozoon C; format: cell-based; conditions: strain K1, 3[H]-hypoxanthine method
Protocol: (§1) In vitro activity of selected compounds of the invention against different protozoa was assessed as follows.
(§2) Plasmodium falciparum strain K1 and strain 3D7 parasites were cultured according to Trager W and Jensen J B (Science 1976, 193: 673-675). In vitro drug susceptibility assays with the test compounds were carried out according to Korsinczky M et al. (Antimicrobial agents and chemotherapy 2000, 44(8): 2100-2108) and Fivelman Q L et al. (Antimicrobial agents and chemotherapy 2004, 48(11): 4097-4102) using a ^3[H]-hypoxanthine radioisotope method. ED50 values were calculated with Msxlfit (IDBS).
(§3) The following protozoa were assessed: • A) Trypanosoma cruzi (Tulahuan-LACZ amstigotes in PEM, Lorente S O et al., Antimicrobial agents and chemotherapy 2004, 48(8): 2937-2950; Buckner et al., Infection and Immunity 1999, 67(1): 403-409; Buckner et al., Antimicrobial Agents and Chemotherapy 1996, 40(11): 2592-2597) • B) Trypanosoma brucei rhodesiense (strain STIB900, Lorente S O et al., Antimicrobial agents and chemotherapy 2004, 48(8): 2937-2950; Habtemariam S, BMC Pharmacology 2003, 3:6) • C) Plasmodium falciparum (strain K1, Korsinczky M et al., Antimicrobial agents and chemotherapy 2000, 44(8): 2100-2108; Thaitong S and Beale G H, Trans. R. Soc. Trop. Med. Hyg. 1981, 75: 271-273; Trager W and Jensen J B, Science 1976, 193: 673-675) • D) Plasmodium faiciparum (strain 3D7, Mu et al., PLoS Biology 2005, 3(10): e335)

[2] = system: Candida albicans ATCC 10231; assay: Anti-fungal broth microdilution (MIC), fungus D; format: cell-based; conditions: yeast protocol, more than 80% inhibition, 48 h
Summary of the method: (§4)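 Broth microdilution per NCCLS M27-A (yeasts) and M38-A (filamentous fungi), compounds tested from 64 down to 0.125 μg/ml against 10^6 CFU/ml inocula. For filamentous fungi, MIC read after 48 to 72 h at 35° C as the concentration giving more than 50% visible growth inhibition.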

[3] = system: Candida parapsilosis ATCC 22019; assay: Anti-fungal broth microdilution (MIC), fungus G; format: cell-based; conditions: yeast protocol, more than 80% inhibition, 48 h
Summary of the method: as §4

[4] = system: Aspergillus fumigatus 040-200167; assay: Anti-fungal broth microdilution (MIC), fungus C; format: cell-based; conditions: filamentous protocol, more than 50% growth inhibition, 48 to 72 h
Summary of the method: as §4

[5] = system: Plasmodium faiciparum (strain 3D7); assay: In vitro drug activity assay, protozoon D; format: cell-based, Plasmodium falciparum; conditions: strain 3D7, 3[H]-hypoxanthine method
Protocol: as §1, §2, §3

[6] = system: Candida albicans ATCC 90028; assay: Anti-fungal broth microdilution (MIC), fungus E; format: cell-based; conditions: yeast protocol, more than 80% inhibition, 48 h
Summary of the method: as §4

[7] = system: Trypanosoma brucei rhodesiense (strain STIB900); assay: In vitro drug activity assay, protozoon B; format: cell-based; conditions: bloodstream form trypomastigotes, 72 hours, Alamar Blue
Protocol: as §1
Trypanosoma brucei rhodesiense STIB900 bloodstream form trypomastigotes were maintained in HMI-18 medium (Hirumi H, Hirumi K, J Parasitol. 1989, 75(6):985-989) with 15% heat-inactivated fetal calf serum at 37° C., 5% CO2, humidified atmosphere. Trypomastigotes were washed and resuspended in fresh medium at a concentration of 2×10^5 mL. Test compounds were given to the trypomastigotes and plates were incubated for 72 hours at 37° C., 5% CO2, humidified atmosphere. At 72 hours the plates were assessed microscopically before Alamar Blue was added (Raz et al., Acta Trop. 1997, 68: 139-147). Plates were read after 5 to 6 hours at EX/EM 530/585 nm with a filter cutoff at 550 nm. ED50 values were calculated with Msxlfit (IDBS).
as §3

[8] = system: epimastigotes of Trypanosoma cruzi strain Y; assay: In vitro activity of miltefosine and benznidazole against epimastigotes; format: cell-based; conditions: 72 h
Protocol: In vitro activity of Miltefosine and Benznidazole in the course of a combination treatment against Trypanosoma cruzi strain Y was assessed compared to the respective single treatments with miltefosine or benznidazole alone.
Miltefosine and Benznidazol were tested in vitro in combination against epimastigote forms of Trypanosoma cruzi strain Y which were isolated from a chagasic patient in Sao Paulo, Brazil and obtained from Dr. Victor Nussenzweig (Silva, L H. and Nussenzweig, V.; Folia clin. biol., 20: 191-207, 1953). This T. cruzi Y strain can also be ordered at ATCC 50832, while the ATCC strain must be re-adapted by several passages through mice in order to regain the strain's original characteristics of differentiation and virulence.
Epimastigotes were axenially cultured in brain heart infusion medium (BHI, Becton, Dickinson, Cat. No. 221812) supplemented with 10 mg of hemin per liter and 5% heat inactivated fetal calf serum (FCS) at 28° C. with shaking (˜80 rpm) up to a maximum of 10-12 passages, before the cultures were aged to obtain metacyclics that were purified on a DE-52 column (Whatman DEAE cellulose ion exchange column, Waco, Cat. No. 17050-03 or 17050-04) and injected into mice. After 2-4 weeks parasites were recovered from blood and placed back into axenic culture.
Stock solutions of Miltefosine and Benznidazol in concentrations of 10 mg/ml and 20 mg/ml dissolved in methanol were used. Stock solutions were serially diluted with a factor of 2 in BHI-FCS medium. For Benznidazol the following testing concentrations were used: 80 μg/ml, 40 μg/ml, 20 μg/ml, 10 μg/ml, 5 μg/ml and 2.5 μg/ml. The testing concentrations for Miltefosine were 20 μg/ml, 10 μg/ml, 5 μg/ml, 2.5 μg/ml, 1.25 μg/ml and 0.625 μg/ml.
2×10^6 epimastigotes were incubated in BHI-FCS medium with Miltefosine and Benznidazol in a final volume of 200 μl. After 72 h incubation at 28° C., parasite growth was determined by direct counting the number of parasites with a Neubauer chamber. The 50% inhibitory concentrations were determined by linear regression analysis.

Compound: CCCCCCCCCCCCCCCCOP(=O)([O-])OCC[N+]1(C)CCCCC1 [Compound 2, Phosphoric acid hexadecyl ester 2-(1-methyl-piperidin-1-yl)-ethyl ester]
- ED50 (μg/mL), protozoon C [1]: 19.36 µg/mL (≈ 43.2 µM)
- MIC, fungus D [2]: 1 µg/mL (≈ 2.23 µM)
- MIC, fungus G [3]: 2 µg/mL (≈ 4.47 µM)
- MIC, fungus C [4]: 6 µg/mL (≈ 13.4 µM)
- ED50 (μg/mL), protozoon D [5]: 2.21 µg/mL (≈ 4.94 µM)
- MIC, fungus E [6]: 1 µg/mL (≈ 2.23 µM)
- ED50 (μg/mL), protozoon B [7]: 17.50 µg/mL (≈ 39.1 µM)

Compound: CCCCCCCCCCCCCCCCOP(=O)([O-])OCC[N+](C)(C)C [miltefosine, hexadecylphosphocholine, reference compound]
- Epimastigotes [amount/mL] ([8]; miltefosine 1.25 ug/mL): 820.000 amount/mL
- Epimastigotes [amount/mL] ([8]; miltefosine 2.5 ug/mL): 290.000 amount/mL
